Several values for one entry are separate records, joined by “and”; a condition that tells them apart may be missing. Identical values can stand only once. Counter-ions that a name gives are not always drawn. Like-named read-outs stand apart in the source and are kept apart here. Marks after values point to notes of the source that are not given here.
Tests used:
[1] = Conversion of free base Form A to hydrated form B with humidity/water activity; type: physicochemical; conditions: ambient temperature
[2] = Water activity tests: competition slurry of Form A seeded with Form F in IPA/water; type: physicochemical; conditions: Starting Forms A + F, Water Activity (aw) 0.9, Water wt % 2.80
[3] = test system: influenza virus A/PR/8/34; type: in vivo, Balb/c mice
[4] = test system: influenza virus B/Mass/3/66; type: in vivo, Balb/c mice
[5] = test system: Influenza A/California/04/2009 (pndH1N1) virus; type: in vivo, BALB/c mice
[6] = test system: Influenza A/Victoria/3/75 (H3N2) virus; type: in vivo, BALB/c mice
[7] = test system: influenza A; type: in vivo, mice
[8] = test system: influenza A virus; type: in vivo, mice
[9] = test system: Influenza A/Vietnam/1203/2004 (H5N1) virus; parameters: species or system BALB/c mice; conditions: mouse, in vivo
[10] = test system: influenza A strains; type: cell-based, influenza A virus
[11] = test system: influenza B virus; type: cell-based
[12] = test system: influenza A; parameters: species or system mice; conditions: mouse, in vivo
[13] = test system: influenza virus; parameters: species or system mice; conditions: mouse, in vivo
[14] = test system: influenza A/Wisconsin/67/2005 (H3N2) challenge strain virus; parameters: species or system humans; conditions: human, in vivo
[15] = test system: influenza A/Wisconsin/67/2005 (H3N2) challenge strain virus; parameters: species or system humans; conditions: human, in vivo; remark: listed apart in the source
[16] = test system: influenza A/Wisconsin/67/2005 (H3N2) challenge strain virus; parameters: species or system humans; conditions: human, in vivo; remark: listed apart in the source
[17] = human, in vivo
[18] = in vivo
[19] = Compound (1) 0 mg/kg, Oseltamivir 10 mg/kg, […]
[20] = 10 mg/kg per treatment, twice a day for 10 days starting 2 hours prior to virus exposure
[21] = treatment start +48 h, 10 mg/kg BID
[22] = treatment start +72 h, 10 mg/kg BID

O=C(O)[C@H]1C2CCC(CC2)[C@@H]1Nc1nc(-c2c[nH]c3ncc(F)cc23)ncc1F [Form A of Compound (1)]
water activity where the hydrate form (form B) was observed [1]: greater than 0.6

O=C(O)[C@H]1C2CCC(CC2)C1Nc1nc(-c2c[nH]c3ncc(F)cc23)ncc1F (stereo partly shown) [Form A of HCl salt of Compound (1).½H2O]
Final Form [2]: converted to Form F of HCl salt of Compound (1).3H2O

CCOC(=O)C1=C[C@@H](OC(CC)CC)[C@H](NC(C)=O)[C@@H](N)C1 [Oseltamivir]
Penh (Day 3) [3, 19]: 2.36
Survival (21 days) [3, 19]: 0%
Weight Loss (Day 8) [3, 19]: 32.0%
protection from death, BW loss and lung function ([3]; mouse, in vivo): did not protect from death reduce BW loss or restore lung function
Penh (Day 6/7) [4, 19]: 1.08
Survival (21 days) [4, 19]: 100%
Weight Loss (Day 8) [4, 19]: 12.8%
protection from death, BW loss and lung function ([4]; mouse, in vivo): complete protection from death, reduced BW loss and restored lung function
Survivors/Total [5, 20]: 10/10***
Survivors/Total [6, 20]: 9/10***
survival ([7]; 10 mg/kg BID, same experiment): All of the oseltamivir-administered mice survived
Percent Body Weight Loss on Study Day 8 ([7]; mouse, in vivo, 10 mg/kg): −19.1%
Percent Survival ([7]; mouse, in vivo, 10 mg/kg): 100%
Percent Body Weight Loss on Study Day 8 ([8]; mouse, in vivo, 10 mg/kg): −28.9%
Percent Survival ([8]; mouse, in vivo, 10 mg/kg): 100%
Percent Body Weight Loss on Study Day 8 [8, 21]: −31.1%
Percent Survival [8, 21]: 80%
Percent Body Weight Loss on Study Day 8 [8, 22]: −31.3%
Percent Survival [8, 22]: 0%

O=C(O)[C@H]1C2CCC(CC2)C1Nc1nc(-c2c[nH]c3ncc(F)cc23)ncc1F (stereo partly shown) [Compound (1)]
Penh (Day 6/7) ([4]; mouse, in vivo): 1.90 and 2.06 and 2.04
Survival (21 days) ([4]; mouse, in vivo): 0%
Weight Loss (Day 8) ([4]; mouse, in vivo): 33.6% and 33.9% and 33%
activity against influenza B in vivo ([4]; mouse, in vivo): little activity
interference with the effectiveness of Oseltamivir ([4]; mouse, in vivo): does not interfere with the effectiveness of Oseltamivir
protection against morbidity, BW loss or loss of lung function ([4]; mouse, in vivo): no significant protection against morbidity, BW loss or loss of lung function
Survivors/Total ([5]; mouse, in vivo): 9/9*** and 10/10***
Survivors/Total ([6]; mouse, in vivo): 10/10***
protection [9]: complete protection
activity against all influenza A strains tested [10]: potent activity
activity against influenza B virus [11]: limited activity
survival and BW loss ([7]; mouse, in vivo): complete survival and a dose-dependent reduction in BW loss
Percent Body Weight Loss on Study Day 8 ([7]; mouse, in vivo, 0.1 mg/kg): −31.9%
Percent Survival ([7]; mouse, in vivo, 0.1 mg/kg): 0%
Percent Body Weight Loss on Study Day 8 ([7]; mouse, in vivo, 0.3 mg/kg): −30.4%
Percent Survival ([7]; mouse, in vivo, 0.3 mg/kg): 25%
Percent Body Weight Loss on Study Day 8 ([7]; mouse, in vivo, 1 mg/kg): −16.8%
Percent Survival ([7]; mouse, in vivo, 1 mg/kg): 100%
Percent Body Weight Loss on Study Day 8 ([7]; mouse, in vivo, 3 mg/kg): −8.7%
Percent Survival ([7]; mouse, in vivo, 3 mg/kg): 100%
Percent Body Weight Loss on Study Day 8 ([7]; mouse, in vivo, 10 mg/kg): −2.8%
Percent Survival ([7]; mouse, in vivo, 10 mg/kg): 100%
protection ([8]; mouse, in vivo): partial protection
protection from death and BW loss ([8]; mouse, in vivo): complete protection from death and reduced BW loss
survival ([8]; mouse, in vivo): complete survival
Percent Survival ([8]; mouse, in vivo, 1 mg/kg): 100%
reduction in lung viral titers [12]: robust, statistically significant reductions in lung viral titers
correlation between lung titer reduction and Cmin [13]: clear correlation
AUC viral shedding versus pooled placebo [14]: statistically significant reduction
dose response trend in median AUC viral shedding in nasal swabs [14]: statistically significant dose response trend
improvement over placebo in viral shedding [14]: a similar magnitude of improvement over placebo was not observed
peak viral shedding versus pooled placebo [14]: significant reductions
rates of seroconversion versus placebo [15]: no difference
median AUC of influenza-like symptoms versus placebo [16]: statistically significant reduction
median duration of composite clinical symptoms versus placebo [16]: statistically significant reduction
median duration of influenza-like symptoms versus placebo [16]: statistically significant reduction
discontinuations and serious adverse events [17]: no discontinuations due to Compound (1)-related adverse events (AE) nor were there any serious adverse events
elevations in alanine aminotransferase (ALT) [17]: observed
incidence of decreased blood phosphorus level [17]: 18.1%
incidence of nasal congestion [17]: 1.4%
incidence of rhinorrhea [17]: 4.2%
tolerability [17]: well tolerated
liver function abnormalities and serum phosphate decreases [18]: Neither liver function abnormalities nor serum phosphate decreases were observed

Source: patent US9771361B2, “Inhibitors of influenza viruses replication” (priority 2013, dated 2017)
